“And” between values parts separate entries of the source, which are not always exact repeats. Equal values may be shown once. Inconclusive results and toxic doses are left out.
Test system: BDF1 mice, B16 melanoma ip, median survival T/C
Experiment: NCI In Vivo Anticancer Drug Screen. Data for tumor model B16 Melanoma (intraperitoneal) in B6D2F1 (BDF1) mice
Settings: endpoint: median survival time, higher = longer survival
Method in brief: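 Vehicle-treated animals serve as the reference (C); treated animals (T) are scored for survival or tumor size after tumor transplantation.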

[1] = dose: 5.0 mg/kg/injection, schedule: Q01DX009 (ip), vehicle: other
[2] = dose: 50.0 mg/kg/injection, schedule: Q01DX009 (ip), vehicle: saline with Tween-80
[3] = dose: 100.0 mg/kg/injection, schedule: Q01DX009 (ip), vehicle: saline with Tween-80
[4] = dose: 400.0 mg/kg/injection, schedule: Q01DX009 (ip), vehicle: saline with Tween-80

How did the T/C (dose: 0.25 mg/kg/injection, schedule: Q01DX009 (ip), vehicle: saline with Tween-80) turn out when `O=NN(CCCl)C(=O)NCCCl` was run?
Its T/C is 102 % of control.

And the T/C (dose: 0.5 mg/kg/injection, schedule: Q01DX009 (ip), vehicle: saline + alcohol)?
The T/C was 105 % of control and 110 % of control.

And the T/C (dose: 0.5 mg/kg/injection, schedule: Q01DX009 (ip), vehicle: saline with Tween-80)?
Its T/C is 109 % of control.

What about the T/C (dose: 1.0 mg/kg/injection, schedule: Q01DX009 (ip), vehicle: saline + alcohol) of the same compound?
The T/C was 108 % of control and 115 % of control.

What about the T/C (dose: 1.0 mg/kg/injection, schedule: Q01DX009 (ip), vehicle: saline with Tween-80) of the same compound?
The T/C was 110 % of control and 113 % of control (2×).

And the T/C (dose: 1.5 mg/kg/injection, schedule: Q01DX009 (ip), vehicle: alcohol)?
The T/C was 113 % of control and 116 % of control.

What about the T/C (dose: 1.5 mg/kg/injection, schedule: Q01DX009 (ip), vehicle: other) of the same compound?
The T/C was 95 % of control and 104 % of control.

What about the T/C (dose: 1.87 mg/kg/injection, schedule: Q01DX009 (ip), vehicle: saline) of the same compound?
The T/C was 115 % of control.

And the T/C (dose: 1.9 mg/kg/injection, schedule: Q01DX001 (ip), vehicle: saline)?
Its T/C is 115 % of control.

What about the T/C (dose: 2.0 mg/kg/injection, schedule: Q01DX009 (ip), vehicle: saline + alcohol) of the same compound?
Its T/C is 109 % of control and 118 % of control.

And the T/C (dose: 2.0 mg/kg/injection, schedule: Q01DX009 (ip), vehicle: saline with Tween-80)?
Its T/C is 109 % of control and 115 % of control and 122 % of control.

And the T/C (dose: 2.0 mg/kg/injection, schedule: Q04DX003 (ip), vehicle: saline + alcohol)?
Its T/C is 118 % of control.

And the T/C (dose: 3.0 mg/kg/injection, schedule: Q01DX009 (ip), vehicle: other)?
The T/C was 105 % of control and 114 % of control.

What about the T/C (dose: 3.75 mg/kg/injection, schedule: Q01DX001 (ip), vehicle: saline) of the same compound?
The T/C was 115 % of control.

And the T/C (dose: 4.0 mg/kg/injection, schedule: Q01DX009 (ip), vehicle: saline with Tween-80)?
The T/C was 152 % of control.

And the T/C (dose: 5.0 mg/kg/injection, schedule: Q01DX001 (ip), vehicle: saline + alcohol)?
The T/C was 111 % of control and 122 % of control.

And the T/C [1]?
Its T/C is 190 % of control.

And the T/C (dose: 5.0 mg/kg/injection, schedule: Q04DX003 (ip), vehicle: saline + alcohol)?
The T/C was 113 % of control and 115 % of control.

What about the T/C (dose: 6.0 mg/kg/injection, schedule: Q01DX009 (ip), vehicle: alcohol) of the same compound?
The T/C was 160 % of control and 188 % of control.

And the T/C (dose: 6.0 mg/kg/injection, schedule: Q01DX009 (ip), vehicle: other)?
The T/C was 171 % of control and 179 % of control.

What about the T/C (dose: 7.5 mg/kg/injection, schedule: Q01DX001 (ip), vehicle: saline) of the same compound?
The T/C was 119 % of control.

What about the T/C (dose: 7.5 mg/kg/injection, schedule: Q01DX009 (ip), vehicle: saline) of the same compound?
The T/C was 192 % of control.

And the T/C (dose: 8.0 mg/kg/injection, schedule: Q01DX001 (ip), vehicle: saline + alcohol)?
Its T/C is 107 % of control.

And the T/C (dose: 8.0 mg/kg/injection, schedule: Q01DX009 (ip), vehicle: saline + alcohol)?
The T/C was 207 % of control and 221 % of control.

What about the T/C (dose: 8.0 mg/kg/injection, schedule: Q01DX009 (ip), vehicle: saline with Tween-80) of the same compound?
The T/C was 165 % of control and 168 % of control and 183 % of control.

What about the T/C (dose: 8.0 mg/kg/injection, schedule: Q04DX003 (ip), vehicle: saline + alcohol) of the same compound?
Its T/C is 111 % of control.

What about the T/C (dose: 10.0 mg/kg/injection, schedule: Q01DX001 (ip), vehicle: saline) of the same compound?
The T/C was 121 % of control.

And the T/C (dose: 12.0 mg/kg/injection, schedule: Q01DX009 (ip), vehicle: other)?
The T/C was 153 % of control.

And the T/C (dose: 15.0 mg/kg/injection, schedule: Q01DX009 (ip), vehicle: saline)?
The T/C was 200 % of control.

What about the T/C (dose: 16.0 mg/kg/injection, schedule: Q01DX009 (ip), vehicle: saline + alcohol) of the same compound?
The T/C was 53 % of control and 65 % of control.

What about the T/C (dose: 16.0 mg/kg/injection, schedule: Q04DX003 (ip), vehicle: saline + alcohol) of the same compound?
Its T/C is 186 % of control.

And the T/C (dose: 20.0 mg/kg/injection, schedule: Q01DX001 (ip), vehicle: saline)?
The T/C was 154 % of control.

And the T/C (dose: 20.0 mg/kg/injection, schedule: Q04DX003 (ip), vehicle: saline + alcohol)?
The T/C was 157 % of control and 210 % of control and 229 % of control.

What about the T/C (dose: 30.0 mg/kg/injection, schedule: Q01DX001 (ip), vehicle: saline + alcohol) of the same compound?
The T/C was 154 % of control.

What about the T/C (dose: 30.0 mg/kg/injection, schedule: Q01DX001 (ip), vehicle: saline) of the same compound?
The T/C was 189 % of control.

What about the T/C (dose: 32.0 mg/kg/injection, schedule: Q01DX009 (ip), vehicle: saline + alcohol) of the same compound?
Its T/C is 40 % of control and 44 % of control.

What about the T/C (dose: 32.0 mg/kg/injection, schedule: Q04DX003 (ip), vehicle: saline + alcohol) of the same compound?
The T/C was 248 % of control.

And the T/C (dose: 40.0 mg/kg/injection, schedule: Q01DX001 (ip), vehicle: saline)?
Its T/C is 207 % of control.

What about the T/C (dose: 40.0 mg/kg/injection, schedule: Q04DX003 (ip), vehicle: saline + alcohol) of the same compound?
The T/C was 62 % of control and 80 % of control.

What about the T/C (dose: 60.0 mg/kg/injection, schedule: Q01DX001 (ip), vehicle: saline) of the same compound?
Its T/C is 106 % of control.

What about the T/C (dose: 64.0 mg/kg/injection, schedule: Q01DX001 (ip), vehicle: saline + alcohol) of the same compound?
The T/C was 42 % of control.

What about the T/C (dose: 64.0 mg/kg/injection, schedule: Q01DX009 (ip), vehicle: saline + alcohol) of the same compound?
Its T/C is 28 % of control and 30 % of control.

What about the T/C (dose: 64.0 mg/kg/injection, schedule: Q04DX003 (ip), vehicle: saline + alcohol) of the same compound?
The T/C was 43 % of control.

What about the T/C (dose: 128.0 mg/kg/injection, schedule: Q04DX003 (ip), vehicle: saline + alcohol) of the same compound?
The T/C was 37 % of control.

What about the T/C (dose: 256.0 mg/kg/injection, schedule: Q04DX003 (ip), vehicle: saline + alcohol) of the same compound?
Its T/C is 20 % of control.

With `C[N+](C)(CCO)Cc1ccccc1` as the compound, how does the T/C [2] read?
Its T/C is 95 % of control.

And the T/C [3]?
The T/C was 90 % of control.

How did the T/C (dose: 0.2 mg/kg/injection, schedule: Q01DX009 (ip), vehicle: saline with Tween-80) turn out when `COc1cc(/C=C2/c3cc(Cl)ccc3-c3c(Cl)cc(Cl)cc32)cc(OC)c1OC` was run?
The T/C was 86 % of control.

What about the T/C (dose: 0.4 mg/kg/injection, schedule: Q01DX009 (ip), vehicle: saline with Tween-80) of the same compound?
The T/C was 86 % of control.

What about the T/C (dose: 0.8 mg/kg/injection, schedule: Q01DX009 (ip), vehicle: saline with Tween-80) of the same compound?
Its T/C is 86 % of control.

With `O=S(=O)(Nc1ccc(O)cc1)c1ccccc1` as the compound, how does the T/C [3] read?
The T/C was 97 % of control.

And the T/C (dose: 200.0 mg/kg/injection, schedule: Q01DX009 (ip), vehicle: saline with Tween-80)?
Its T/C is 93 % of control.

What about the T/C [4] of the same compound?
The T/C was 90 % of control.

`COc1cc(O)c(Cc2ccccc2O)c(O)c1C(=O)CCc1ccccc1` was tested. Which T/C (dose: 1.25 mg/kg/injection, schedule: Q01DX009 (ip), vehicle: other) did it give?
Its T/C is 100 % of control.

What about the T/C (dose: 2.5 mg/kg/injection, schedule: Q01DX009 (ip), vehicle: other) of the same compound?
Its T/C is 100 % of control.

And the T/C [1]?
Its T/C is 92 % of control.

What about the T/C (dose: 10.0 mg/kg/injection, schedule: Q01DX009 (ip), vehicle: other) of the same compound?
The T/C was 100 % of control.

How did the T/C (dose: 100.0 mg/kg/injection, schedule: Q04DX003 (ip), vehicle: Klucel (hydroxypropylcellulose) (HPC)) turn out when `COc1cc2c(cc1OC)N(S(=O)(=O)c1ccc(C)cc1)CCCC2=O` was run?
The T/C was 87 % of control.

And the T/C (dose: 200.0 mg/kg/injection, schedule: Q04DX003 (ip), vehicle: Klucel (hydroxypropylcellulose) (HPC))?
The T/C was 100 % of control.

And the T/C (dose: 400.0 mg/kg/injection, schedule: Q04DX003 (ip), vehicle: Klucel (hydroxypropylcellulose) (HPC))?
Its T/C is 92 % of control.

With `COc1cc2cc(c1Cl)N(C)C(=O)/C=C/C1(C)OC1C(C)C1CC(O)(NC(=O)O1)C(OC)C=C/C=C(\C)C2` (stereo not drawn) as the compound, how does the T/C (dose: 1.3 micrograms/kg/injection, schedule: Q01DX009 (ip), vehicle: saline + alcohol) read?
Its T/C is 100 % of control.

And the T/C (dose: 2.5 micrograms/kg/injection, schedule: Q01DX009 (ip), vehicle: saline + alcohol)?
The T/C was 97 % of control.

And the T/C (dose: 5.0 micrograms/kg/injection, schedule: Q01DX009 (ip), vehicle: saline + alcohol)?
Its T/C is 97 % of control.

And the T/C (dose: 10.0 micrograms/kg/injection, schedule: Q01DX009 (ip), vehicle: saline + alcohol)?
Its T/C is 92 % of control.

How did the T/C (dose: 10.0 mg/kg/injection, schedule: Q01DX009 (ip), vehicle: saline) turn out when `COc1ccc2c(c1OC)C(=O)O[C@@H]2[C@H]1c2cc3c(cc2CCN1C)OCO3` was run?
The T/C was 112 % of control.

What about the T/C (dose: 20.0 mg/kg/injection, schedule: Q01DX009 (ip), vehicle: saline) of the same compound?
The T/C was 108 % of control.

What about the T/C (dose: 40.0 mg/kg/injection, schedule: Q01DX009 (ip), vehicle: saline) of the same compound?
Its T/C is 98 % of control.

What about the T/C (dose: 80.0 mg/kg/injection, schedule: Q01DX009 (ip), vehicle: saline) of the same compound?
The T/C was 109 % of control.

What does the source list for `COc1cccc2c1C(=O)c1c(O)c3c(c(O)c1C2=O)C[C@@](O)(C(=O)CO)C[C@@H]3OC1CC(NCc2ccccc2)C(O)C(C)O1` (stereo partly drawn)?
T/C (dose: 15.0 mg/kg/injection, schedule: Q01DX001 (ip), vehicle: water): 156 % of control and 171 % of control; T/C (dose: 30.0 mg/kg/injection, schedule: Q01DX001 (ip), vehicle: water): 171 % of control and 175 % of control

With `CN(C)CC(C(=O)c1ccc(Br)cc1)C(Br)c1ccccc1` (stereo not drawn) as the compound, how does the T/C (dose: 5.0 mg/kg/injection, schedule: Q01DX009 (ip), vehicle: saline with Tween-80) read?
The T/C was 101 % of control.

What about the T/C (dose: 10.0 mg/kg/injection, schedule: Q01DX009 (ip), vehicle: saline with Tween-80) of the same compound?
The T/C was 108 % of control.

And the T/C (dose: 20.0 mg/kg/injection, schedule: Q01DX009 (ip), vehicle: saline with Tween-80)?
Its T/C is 101 % of control.

And the T/C (dose: 40.0 mg/kg/injection, schedule: Q01DX009 (ip), vehicle: saline with Tween-80)?
Its T/C is 111 % of control.

For `CCCCCCCCCCCCCCCCOc1ccccc1C(C)=O`, which T/C (dose: 25.0 mg/kg/injection, schedule: Q01DX009 (ip), vehicle: saline with Tween-80) is on record?
The T/C was 92 % of control.

And the T/C [2]?
Its T/C is 92 % of control.

And the T/C [3]?
The T/C was 89 % of control.

And the T/C [4]?
The T/C was 100 % of control.
